The target in this assay is T1, human Nav1.8/b3 (Homo sapiens, UniProt Q9Y5Y9).
T1 construct: expressed in transfected cells; host or cells: CHO
Kind of assay: Compound Profiling Human NaV1.8/β3 Cell Line—SyncroPatch384PE Assay (automated patch clamp, stably transfected CHO cells). Type of assay: cell-based. The settings on record: Nav1.8/b3 CHO cells. In general terms: Patch clamp records ionic current or voltage across a cell membrane.

Where [1] appears, read: P1 (IC50, resting state block), P1 measurement, resting state block, holding potential −120 mV, third set of compounds.
The mark [2] stands for this setting: P2 (IC50, inactivated state block), P2 measurement, inactivated state block, inactivation step −35 mV 10 sec, third set of compounds.
The mark [3] stands for this setting: P1 (IC50, resting state block), P1 measurement, resting state block, holding potential −120 mV, first set of compounds.
The mark [4] stands for this setting: P2 (IC50, inactivated state block), P2 measurement, inactivated state block, inactivation step −35 mV 10 sec, first set of compounds.
[5] abbreviates: P1 (IC50, resting state block), P1 measurement, resting state block, holding potential −120 mV, fourth set of compounds.
[6] abbreviates: P2 (IC50, inactivated state block), P2 measurement, inactivated state block, inactivation step −35 mV 10 sec, fourth set of compounds.
Where [7] appears, read: P1 (IC50, resting state block), P1 measurement, resting state block, holding potential −120 mV, second set of compounds.
Setting [8] is: P2 (IC50, inactivated state block), P2 measurement, inactivated state block, inactivation step −35 mV 10 sec, second set of compounds.

Drawing on US20260356804A1, “SODIUM CHANNEL BLOCKING COMPOUNDS, DERIVATIVES THEREOF, AND METHODS OF THEIR USE” (LATIGO BIOTHERAPEUTICS, INC., priority 2022, published 2026), this text covers IC50 for 24 compounds.

Where a name gives a salt, the structure may show the parent alone. Read-outs that look alike come from different tables or passages of the source. Some results are limits rather than exact numbers.

T1 sequence (Q9Y5Y9 whole entry): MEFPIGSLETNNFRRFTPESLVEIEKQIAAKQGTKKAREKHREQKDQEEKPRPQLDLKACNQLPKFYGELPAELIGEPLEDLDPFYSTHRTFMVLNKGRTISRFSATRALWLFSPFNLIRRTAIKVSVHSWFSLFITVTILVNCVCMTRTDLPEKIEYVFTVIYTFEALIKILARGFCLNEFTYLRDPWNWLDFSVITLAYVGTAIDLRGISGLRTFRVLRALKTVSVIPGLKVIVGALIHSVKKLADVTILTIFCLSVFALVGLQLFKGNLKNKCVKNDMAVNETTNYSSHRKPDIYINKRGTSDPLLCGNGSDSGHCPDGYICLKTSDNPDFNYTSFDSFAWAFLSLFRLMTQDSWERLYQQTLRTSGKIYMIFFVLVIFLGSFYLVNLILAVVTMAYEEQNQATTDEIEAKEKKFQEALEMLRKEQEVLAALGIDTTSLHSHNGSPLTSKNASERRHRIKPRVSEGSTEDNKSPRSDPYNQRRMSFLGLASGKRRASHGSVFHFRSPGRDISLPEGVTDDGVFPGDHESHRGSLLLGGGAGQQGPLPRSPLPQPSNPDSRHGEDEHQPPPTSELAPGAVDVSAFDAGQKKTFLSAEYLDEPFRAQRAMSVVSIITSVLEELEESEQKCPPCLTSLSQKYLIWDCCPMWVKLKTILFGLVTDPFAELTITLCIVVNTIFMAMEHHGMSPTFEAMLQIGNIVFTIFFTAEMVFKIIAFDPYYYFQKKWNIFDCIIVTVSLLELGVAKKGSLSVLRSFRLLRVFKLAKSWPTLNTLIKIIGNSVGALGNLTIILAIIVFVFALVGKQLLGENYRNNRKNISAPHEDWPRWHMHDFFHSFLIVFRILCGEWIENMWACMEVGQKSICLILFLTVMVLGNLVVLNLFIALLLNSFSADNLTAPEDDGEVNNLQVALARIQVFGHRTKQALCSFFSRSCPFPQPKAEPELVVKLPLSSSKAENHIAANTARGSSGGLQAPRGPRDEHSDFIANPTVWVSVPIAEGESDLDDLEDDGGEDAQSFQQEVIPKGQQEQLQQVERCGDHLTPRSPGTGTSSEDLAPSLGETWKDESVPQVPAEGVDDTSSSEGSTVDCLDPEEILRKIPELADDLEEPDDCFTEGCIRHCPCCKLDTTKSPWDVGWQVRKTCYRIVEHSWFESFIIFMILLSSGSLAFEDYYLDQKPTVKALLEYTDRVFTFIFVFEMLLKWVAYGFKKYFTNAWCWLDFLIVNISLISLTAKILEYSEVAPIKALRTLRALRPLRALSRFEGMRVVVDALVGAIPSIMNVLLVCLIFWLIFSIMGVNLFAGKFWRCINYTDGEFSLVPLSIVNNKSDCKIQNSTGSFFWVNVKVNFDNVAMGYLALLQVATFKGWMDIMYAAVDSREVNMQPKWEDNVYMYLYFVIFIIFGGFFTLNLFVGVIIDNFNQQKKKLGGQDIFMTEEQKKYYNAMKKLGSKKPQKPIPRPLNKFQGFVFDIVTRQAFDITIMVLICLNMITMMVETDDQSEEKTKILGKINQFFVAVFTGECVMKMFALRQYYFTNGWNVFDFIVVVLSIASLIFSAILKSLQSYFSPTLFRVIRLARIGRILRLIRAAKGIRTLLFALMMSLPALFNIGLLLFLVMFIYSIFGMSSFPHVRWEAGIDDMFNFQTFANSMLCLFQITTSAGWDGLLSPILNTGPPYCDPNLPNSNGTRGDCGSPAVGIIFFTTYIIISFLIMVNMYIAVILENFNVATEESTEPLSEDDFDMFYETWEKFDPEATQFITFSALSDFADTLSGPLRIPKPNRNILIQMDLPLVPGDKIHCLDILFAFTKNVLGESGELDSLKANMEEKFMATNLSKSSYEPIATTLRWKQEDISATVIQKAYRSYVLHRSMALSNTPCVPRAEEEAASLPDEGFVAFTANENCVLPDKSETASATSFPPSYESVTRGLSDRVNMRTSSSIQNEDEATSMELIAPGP
T1 sequence (Q9NY72 23-215 partner): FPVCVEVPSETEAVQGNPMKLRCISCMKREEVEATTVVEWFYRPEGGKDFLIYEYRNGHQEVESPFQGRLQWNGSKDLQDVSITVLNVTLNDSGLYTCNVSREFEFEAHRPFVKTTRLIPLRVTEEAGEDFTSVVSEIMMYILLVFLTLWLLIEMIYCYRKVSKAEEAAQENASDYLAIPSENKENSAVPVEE

On to `Cc1nc(F)ccc1Oc1ncc(C(F)(F)F)c(C)c1C(=O)Nc1cccc(S(N)(=O)=O)c1` [Example 8C, 2-((6-fluoro-2-methylpyridin-3-yl)oxy)-4-methyl-N-(3-sulfamoylphenyl)-5-(trifluoromethyl)nicotinamide], for which the IC50 (usually the concentration that gives 50% inhibition) by setting is: under setting [1], under 5 nM; under setting [2], under 5 nM.
Turning to `Cc1nc(F)ccc1Oc1ncc(C(F)F)c(C)c1C(=O)Nc1ccnc(S(C)(=N)=O)c1` (stereo not drawn) [Example 48C, 5-(difluoromethyl)-2-((6-fluoro-2-methylpyridin-3-yl)oxy)-4-methyl-N-(2-(S-methylsulfonimidoyl)pyridin-4-yl)nicotinamide], the IC50 runs as follows: under setting [1], over 200 nM; under setting [2], over 200 nM.
For `Cc1nc(F)ccc1Oc1cc(C(F)(F)F)c(Cl)c(C)c1C(=O)Nc1cccc([S@](C)(=N)=O)c1` [Example 10A, (R)-3-chloro-6-((6-fluoro-2-methylpyridin-3-yl)oxy)-2-methyl-N-(3-(S-methylsulfonimidoyl)phenyl)-4-(trifluoromethyl)benzamide], the IC50 is, setting by setting: under setting [3], under 5 nM; under setting [4], under 5 nM.
Consider `Cc1nc(F)ccc1Oc1cc(C(F)(F)F)c(Cl)cc1C(=O)Nc1ccnc(C(N)=O)c1` [Example 72A], for which the IC50 by setting is: under setting [3], under 5 nM; under setting [4], under 5 nM.
As for `C[S@@](=N)(=O)c1cc(NC(=O)c2c(F)cc(C(F)(F)F)cc2Oc2ccc(OC(F)(F)F)cc2)ccn1` [Example 44A], the IC50 was under 5 nM under setting [3] and under 5 nM under setting [4].
For `COc1cc(C#N)ccc1Oc1ncc(-c2cn(C)nc2C)c(C)c1C(=O)Nc1cccc([S@](C)(=N)=O)c1` [Example 27C, (R)-2-(4-cyano-2-methoxyphenoxy)-5-(1,3-dimethyl-1H-pyrazol-4-yl)-4-methyl-N-(3-(S-methylsulfonimidoyl)phenyl)nicotinamide], the IC50 by setting is: under setting [1], 50 to 100 nM; under setting [2], 50 to 100 nM.
Take `Cc1nc(F)ccc1Oc1cc(C2CC2)c(C(F)(F)F)cc1C(=O)Nc1ccc(F)c([S@@](C)(=N)=O)c1` [Example 51A]: the IC50 under setting [3] was under 5 nM and the IC50 under setting [4] was under 5 nM.
With `Cc1nc(F)ccc1Oc1cnc(C(F)(F)F)c(F)c1C(=O)Nc1cccc([S@](C)(=N)=O)c1` [Example 110C], the IC50 is, setting by setting: under setting [1], 5 to 50 nM; under setting [2], 5 to 50 nM.
`Cc1nc(F)ccc1Oc1nc(C(F)(F)F)c(Br)c(C)c1C(=O)Nc1cccc([S@@](C)(=O)=NCCN)c1` [Example 96C] gave an IC50 under setting [1] of under 5 nM and an IC50 under setting [2] of under 5 nM.
With `Cc1nc(F)ccc1Oc1ncc(C(F)(F)F)c(C)c1C(=O)Nc1cccc([S@@](C)(=O)=NC(=O)C(N)C(F)(F)F)c1` (stereo partly drawn) [Example 11D, N-(3-((R)—N-(2-amino-3,3,3-trifluoropropanoyl)-S-methylsulfonimidoyl)phenyl)-2-((6-fluoro-2-methylpyridin-3-yl)oxy)-4-methyl-5-(trifluoromethyl)nicotinamide], the IC50 runs as follows: under setting [5], under 5 nM; under setting [6], under 5 nM.
Consider `Cc1nc(F)ccc1Oc1cc(C(F)(F)F)c(Cl)c(C)c1C(=O)Nc1ccnc([S@@](C)(=N)=O)c1` [Example 60A], for which the IC50 reads like this: under setting [3], under 5 nM; under setting [4], under 5 nM.
Turning to `Cc1nc(F)ccc1Oc1cnc(C(F)(F)F)c(Cl)c1C(=O)Nc1cccc([S@](C)(=N)=O)c1` [Example 45C, (R)-3-chloro-5-((6-fluoro-2-methylpyridin-3-yl)oxy)-N-(3-(S-methylsulfonimidoyl)phenyl)-2-(trifluoromethyl)isonicotinamide], the IC50 was under 5 nM (P1 measurement, resting state block, holding potential −120 mV, third set of compounds, read-out: P1 (IC50, resting state block)) and under 5 nM (P2 measurement, inactivated state block, inactivation step −35 mV 10 sec, third set of compounds, read-out: P2 (IC50, inactivated state block)).
As to `Cc1nc(F)ccc1Oc1cc(C(F)(F)F)ccc1C(=O)Nc1cccc([S@@](C)(=O)=NC(=O)[C@H](C)O)c1` [Example 12B, 2-((6-fluoro-2-methylpyridin-3-yl)oxy)-N-(3-((R)—N—((S)-2-hydroxypropanoyl)-S-methylsulfonimidoyl)phenyl)-4-(trifluoromethyl)benzamide], the IC50 reads like this: under setting [7], 5 to 50 nM; under setting [8], 5 to 50 nM.
As for `Cc1nc(F)ccc1Oc1cc(C(F)(F)F)ccc1C(=O)Nc1cccc([S@@](C)(=O)=NC(=O)CO)c1` [Example 11B, (R)-2-((6-fluoro-2-methylpyridin-3-yl)oxy)-N-(3-(N-(2-hydroxyacetyl)-S-methylsulfonimidoyl)phenyl)-4-(trifluoromethyl)benzamide], the IC50 by setting is: under setting [7], 5 to 50 nM; under setting [8], 5 to 50 nM.
Consider `Cc1nc(F)ccc1Oc1cc(C2CC2)c(C(F)(F)F)cc1C(=O)Nc1ccnc([S@@](C)(=N)=O)c1` [Example 57A], for which the half-maximal inhibitory concentration (IC50) is under 5 nM under setting [3] and 5 to 50 nM under setting [4].
Take `CC(=O)N=[S@](C)(=O)c1cccc(NC(=O)c2c(Oc3ccc(F)nc3C)ncc(C(F)(F)F)c2C)c1` [Example 3D, (R)—N-(3-(N-acetyl-S-methylsulfonimidoyl)phenyl)-2-((6-fluoro-2-methylpyridin-3-yl)oxy)-4-methyl-5-(trifluoromethyl)nicotinamide]: the IC50 under setting [5] is under 5 nM and the IC50 under setting [6] was under 5 nM.
As for `Cc1nc(F)ccc1Oc1ccc(C(F)(F)F)c(F)c1C(=O)Nc1cccc([S@@](C)(=O)=NC(=O)[C@H](C)O)c1` [Example 18B, 2-fluoro-6-((6-fluoro-2-methylpyridin-3-yl)oxy)-N-(3-((R)—N—((S)-2-hydroxypropanoyl)-S-methylsulfonimidoyl)phenyl)-3-(trifluoromethyl)benzamide], the IC50 runs as follows: under setting [7], under 5 nM; under setting [8], under 5 nM.
For `Cc1nc(F)ccc1Oc1ncc(C(C)C)c(C)c1C(=O)Nc1cccc([S@](C)(=N)=O)c1` [Example 104C], the IC50 reads like this: under setting [1], 50 to 100 nM; under setting [2], 50 to 100 nM.
`Cc1nc(F)ccc1Oc1ccc(C(F)(F)F)c(F)c1C(=O)Nc1cccc([S@@](C)(=O)=NC(=O)CN)c1` [Example 16B, (R)-2-fluoro-6-((6-fluoro-2-methylpyridin-3-yl)oxy)-N-(3-(N-glycyl-S-methylsulfonimidoyl)phenyl)-3-(trifluoromethyl)benzamide]: the IC50 reads like this: under setting [7], under 5 nM; under setting [8], under 5 nM.
Take `C[S@@](=N)(=O)c1cc(NC(=O)c2c(Oc3ccc(OC(F)(F)F)cc3)cc(C(F)(F)F)c(Cl)c2F)ccn1` [Example 45A]: the half-inhibitory concentration (IC50) was under 5 nM under setting [3] and under 5 nM under setting [4].
For the compound `Cc1nc(F)ccc1Oc1cc(C(F)(F)F)c(Cl)cc1C(=O)Nc1ccnc([S@@](C)(=N)=O)c1` (single isomer, unassigned) [Example 5A], the IC50 reads like this: under setting [3], 5 to 50 nM; under setting [4], 5 to 50 nM.
Compound `Cc1nc(F)ccc1Oc1nc(C(F)(F)F)c(Cl)c(C)c1C(=O)Nc1ccc(F)c([S@@](C)(=N)=O)c1` [Example 94C] showed an IC50 under setting [1] of 5 to 50 nM and an IC50 under setting [2] of 5 to 50 nM.
Take `Cc1nc(F)ccc1Oc1ncc(C(F)(F)F)c(C)c1C(=O)Nc1cccc([S@@](C)(=O)=NC(=O)[C@H]2CCCN2)c1` [Example 23D, N-(3-((R)—N-(D-prolyl)-S-methylsulfonimidoyl)phenyl)-2-((6-fluoro-2-methylpyridin-3-yl)oxy)-4-methyl-5-(trifluoromethyl)nicotinamide formate]: the half-inhibitory concentration (IC50) under setting [5] was under 5 nM and the IC50 under setting [6] was under 5 nM.
Consider `COc1cc(C#N)ccc1Oc1cc(C(F)(F)F)nnc1C(=O)Nc1cccc(S(C)(=O)=O)c1` [Example 38C, 4-(4-cyano-2-methoxyphenoxy)-N-(3-(methylsulfonyl)phenyl)-6-(trifluoromethyl)pyridazine-3-carboxamide], for which the IC50 is over 200 nM under setting [1] and 100 to 200 nM under setting [2].
